Where two headings read alike, the source gives them in different places.
What was measured:
E. coli 0111:B4 bacteria = type: binding; conditions: in °C (unit assumed)
[1] = test system: J5 bacteria phagocytosed by J774A.1 mouse macrophage cell line; type: cell-based
E. coli J5 [2] = type: cell-based; conditions: Table 40
E. coli HB101 = type: cell-based; parameters: key: −: no agglutination; +: microagglutination; +++: macroagglutination; conditions: avidin beads loaded with compound
Method: (§1) 100 ul polystyrene beads (Spherotech […], 5% w/v) were aliquoted to two 1.5 mL microcentrifuge tubes, centrifuged 1 min at 12,000 g in microcentrifuge and washed 2×with 1 ml PBS (vortexed and recentrifuged 1-2 min after each wash). The beads were resuspended in 900 ul PBS, and 100 ul of 1 mg/ml solution of avidin (Sigma) added, and the tubes rotated overnight at room temperature. The beads were pelleted, and washed sequentially as described above with 1 ml PBS, PBS+0.5% tween 20 (PBST), and PBS, and each sample resuspended in 200 ul PBS. The samples were pooled and stored at 4 degrees.
(§2) 20 ul avidin coated beads were aliquoted into 2×1.5 ml microcentrifuge tubes, and non-specifically binding sites blocked by rotating with 1 ml PBS+1% BSA for 1 hr at room temperature. […] The samples were pelleted, and washed with 1 ml PBS, repelleted and resuspended with 20 ul PBS. III Bacterial Agglutination Assays
(§3) 5 ul of each resin was added to 20 ul bacteria (1/10 dilution of a saturated overnight culture) in independant depression wells (2 wells/bacteria tested). The samples were incubated 30 min at 37 degrees, swirled, and agglutination scored. (Note that −=no agglutination, +=microagglutination and +++=macroagglutination)

E. coli 0111:B4 [3] = type: cell-based; parameters: key: −: no agglutination; +: microagglutination; +++: macroagglutination; conditions: avidin beads loaded with compound
Method: as §1, §2, §3

Salmonella 34576 = type: cell-based; parameters: key: −: no agglutination; +: microagglutination; +++: macroagglutination; conditions: avidin beads loaded with compound
Method: as §1, §2, §3

E. coli 0111:B4 [4] = test system: E. coli 0111:B4
H16 bacterial strain = type: binding; conditions: 1 ug/ml, Extravidin and anti-avidin chase
[5] = target: avidin and chicken anti-PMB antibody (Gallus gallus, UniProt P02701)
Sequence of avidin and chicken anti-PMB antibody (P02701 25-152): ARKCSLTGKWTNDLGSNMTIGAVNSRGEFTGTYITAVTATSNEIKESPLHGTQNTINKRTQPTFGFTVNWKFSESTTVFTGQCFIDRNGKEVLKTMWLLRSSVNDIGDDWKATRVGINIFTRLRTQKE
Method: The capture ELISA was performed as described below. […] The coating suspensions were decanted, and all wells were washed three times using PBS+0.5% Tween 20 (PBST). In order to block non-specific binding sites, 100 ul of 1% BSA (Sigma, St. Louis, Mo.) in PBS (blocking solution) was then added to each well, and the plates were incubated for 1 hr. at 37° C.
The blocking solution was decanted, and duplicate samples of 150 ul of either PMB-Cy-Biotin or PMB-Cy-Fl added to the first well of a dilution series. The initial testing concentration of the premixed conjugate was 10 ng/ml in blocking buffer (see above), followed by 5 fold dilutions in blocking buffer. This was accomplished by serially transferring 30 ul aliquots to 120 ul buffer, mixing, and repeating the dilution into a fresh well. After the final dilution, 30 ul was removed from the well such that all wells contained 120 ul final volume. A total of 2 such dilutions were performed. […] Following this incubation, the serially diluted samples were decanted, and the wells were washed six times using PBST (Phosphate-Buffered Saline with Tween). To each well, 100 ul of 1/1000 diluted chicken anti-PMB antibody or chicken preimmune, diluted in blocking buffer was added, and the plate incubated 1 hr at 37° C. The antibody solutions were decanted and the plates were washed as described above. To each well, 100 ul of 1/1000 diluted rabbit anti-chicken IgG alkaline phosphatase (Sigma) diluted in blocking buffer was added, and the plate incubated 1 hr at 37° C. The antibody solutions were decanted and the plates were washed as described above, substituting 50 nM Na2CO3, pH 9.5 for the PBST in the final wash. The plates were developed by the addition of 100 ul of a solution containing 1 mg/ml para-nitro phenyl phosphate (Sigma, St. Louis, Mo.) dissolved in 50 nM Na2CO3, 10 mM MgCl2, pH 9.5 to each well, and incubating the plates at room temperature in the dark overnight. […] Only the ELISA readings from the maximally diluted samples in each dilution series are shown.
E. coli 0111: B4 = type: binding; conditions: bacteria coated at 5.0 ug/ml, washed; no antibody
Method: (§4) Staph. aureus and E. coli 0111: B4 were cultured in TSB media at 37 degrees C with shaking. Cells were collected by centrifugation and suspended in 50 mM sodium phosphate buffer, pH 6.8. The cells were again collected by centrifugation and suspended in […] sodium phosphate buffer containing 0.025% sodium azide (buffer).
(§5) The bacteria were diluted with buffer to an absorbance of 1.0 at 620 nm. PMB-Cys-Mal-FL was added to 2.5 ml of each diluted bacterial suspension, to a final concentration of 5.0 ug/ml. The suspensions were incubated at ambient temperature for 5 minutes. The bacteria were collected by centrifugation and suspended in buffer, repeated for a total of three times. The bacteria were then suspended in buffer and Tween 20 detergent was added to a final concentration of 0.1%. The bacteria were again collected by centrifugation and suspended in 1.5 ml buffer without Tween 20.
(§6) The bacteria were diluted 10 fold with buffer and fluorescence was measured in a Sequoia-Turner model 450 Fluorometer using NB490 and SC515 filters with the gain at 5. Mouse monoclonal anti-fluorescein antibody 4-4-20 was added with mixing to the bacterial suspensions. Table 50 summarizes the experimental results.

Staph. aureus = type: binding; conditions: bacteria coated at 5.0 ug/ml, washed
Method: as §4, §5, §6

E. coli J5 [6] = type: cell-based; parameters: key: −: no agglutination; +: microagglutination; +++: macroagglutination; conditions: for Agglutination by avidin beads: Table 53
Method: as §1, §2, §3
To determine if free Immunoadaptor™ compounds can also stably bind surface exposed bacterial structures, agglutination assays were performed using bacteria prebound to Immunoadaptor™ compounds. The assay was performed with J5 bacteria, since the agglutination signal (see table above) was the strongest with this strain. 40 ul avidin coated resin was blocked for 1 hr at room temperature with 1 ml PBS+1% BSA, pelleted as described above, and resuspended in 40 ul PBS. […] The following assays were performed:
Incubated 1 hr at 37 degrees in depression well, swirled and agglutination scored.
Incubated 10 min at 37 degrees then added 5 ul avidin coated beads. Incubated 1 hr at 37 degrees in depression well, swirled and agglutination scored.
Incubated 15 min at 37 degrees, pelleted cells by centrifugation, washed with 100 ul PBS (resuspended cells with micropipetter) and repelleted. Cells were resuspended in 80 ul PBS, 20 ul aliquots distributed to depression well, 5 ul avidin coated beads added, and, incubated 1 hr at 37 degrees, swirled and agglutination scored.

[7] = test system: mouse monoclonal anti-fluorescein antibody (#4-4-20); type: binding
From the text: Millipolarization data was hand calculated using the above equations as described for the fully automated instrument. Total intensity is not represented in the following tables. Table 48 illustrates the reactivity of PMB-Cys-Fl when reacted with mouse monoclonal anti-fluorescein antibody (#4-4-20) obtained from Edward M. Voss at the University of Illinois Urbana.

Q: For “polymyxin B—cystiene—Maleimamide—fluorescein [PMB-Cys-Mal-FL]”, which mP (E. coli 0111:B4 bacteria; E. coli (2.7 × 10^8 bacteria) & PMB-Cys-Mal-Fl) is on record?
A: 256.8

Q: And the mP (E. coli 0111:B4 bacteria; PMB-Cys-Mal-Fl (10^−8 M) alone)?
A: 57.3

Q: And the “% Macrophage with phagocytosed bacteria” value ([1]; Table 59, 0.5 ug/ml then 10 ug/ml anti-fluorescein antibody (chase))?
A: 40%

Q: What about the “% Macrophage with phagocytosed bacteria” value ([1]; Table 59, 0.5 ug/ml with 10 ug/ml anti-fluorescein antibody (premix)) of the same substance?
A: 29%

Q: And the “% Macrophage with phagocytosed bacteria” value ([1]; Table 59, opsonin alone)?
A: 15%

Q: What about the Recovered bacterial colonies ([1]; Table 59, opsonin alone) of the same substance?
A: 29

Q: What about the Recovered bacterial colonies ([1]; Table 59, then anti-fluorescein antibody (chase)) of the same substance?
A: 76

Q: And the Recovered bacterial colonies ([1]; Table 59, with anti-fluorescein antibody (premix))?
A: 52

Q: What about the “% Macrophage with phagocytosed bacteria” value ([1]; Table 60, 1×10^8 J5 bacteria opsonized, from 100 macrophage examined, conjugates 0.5 ug/ml, anti-avidin 1/500, anti-fluorescein antibody 25 ug/ml) of the same substance?
A: 5%

Q: What about the “% Macrophage with phagocytosed bacteria” value ([1]; Table 61 (repeat assay), 1×10^8 J5 bacteria opsonized, from 100 macrophage examined, conjugates 0.5 ug/ml, anti-avidin 1/400, anti-fluorescein antibody 14 ug/ml) of the same substance?
A: 8%

Q: What about the “enhancement of phagocytosis (in words)” value ([1]; with anti-fluorescein antibody) of the same substance?
A: Clear elevation of phagocytosis

Q: And the MIC (E. coli J5 [2])?
A: 0.8 µg/mL

Q: What about the Agglutination (E. coli HB101) of the same substance?
A: −

Q: What about the Agglutination (E. coli 0111:B4 [3]) of the same substance?
A: −

Q: And the Agglutination (Salmonella 34576)?
A: −

Q: And the MIC (E. coli 0111:B4 [4]; Table 40, first number of the cell)?
A: 0.9 µg/mL

Q: What about the MIC (E. coli 0111:B4 [4]; Table 44) of the same substance?
A: 1 µg/mL

Q: What about the ELISA titer (H16 bacterial strain; 2 × 10^5 bacteria) of the same substance?
A: 0.005

Q: And the ELISA titer (H16 bacterial strain; 2 × 10^6 bacteria)?
A: 0.162

Q: What about the “ELISA absorbency at 410 nm” value ([5]; Anti-PMB test antibody, Avidin coated wells, maximally diluted sample) of the same substance?
A: 0.033

Q: What about the “ELISA absorbency at 410 nm” value ([5]; Anti-PMB, PBS coated wells) of the same substance?
A: 0.016

Q: And the “ELISA absorbency at 410 nm” value ([5]; Preimmune, Avidin coated wells)?
A: 0.010

Q: And the “ELISA absorbency at 410 nm” value ([5]; Preimmune, PBS coated wells)?
A: 0.020

Q: And the “FLUORESCENCE of coated bacteria” value (E. coli 0111: B4)?
A: 40 AFU

Q: What about the “FLUORESCENCE of coated bacteria” value (Staph. aureus) of the same substance?
A: 5 AFU

Q: What about the “Agglutination by avidin beads” value (E. coli J5 [6]; Chase format) of the same substance?
A: −

Q: And the “Agglutination by avidin beads” value (E. coli J5 [6]; Premix format)?
A: −

Q: What about the “Agglutination by avidin beads” value (E. coli J5 [6]; Wash + Chase format) of the same substance?
A: −

Q: And the Agglutination (E. coli J5 [6]; avidin beads loaded with compound)?
A: −

Q: And the mP ([7]; PMB-Cys-Mal-FL 10^−7 M alone)?
A: 32.5

Q: What about the mP ([7]; antibody 5 × 10^-8 M & PMB-Cys-Mal-FL 10^-7 M) of the same substance?
A: 390.3

Q: And the “quenching of the intensity signal by anti-fluorescein antibody” value ([7]; not represented in Table 48)?
A: 95%
